28 molecules from ChEMBL document CHEMBL2429823, “Synthesis and biological evaluation of novel 3,4-diaryl lactam derivatives as triple reuptake inhibitors” (Bioorg Med Chem Lett, 2013) can be followed below.

In assay [1] the target is T1, Sodium-dependent dopamine transporter (Homo sapiens, UniProt Q01959). Briefly: Displacement of [3H]Win35428 from human recombinant DAT over-expressed in CHOK1 cells at 10 uM. Type of assay: cell-based. The conditions noted are these: CHO-K1. (In general: Displacement assays read how much labelled ligand stays bound in the presence of the test substance.)
Assay [2] deals with T2, Sodium-dependent noradrenaline transporter (Homo sapiens, UniProt P23975). In words: Displacement of [3H]Nisoxetine from human recombinant NET over-expressed in dog MDCK cells at 10 uM. It counts as cell-based.
Assay [3] has as its target T3, Sodium-dependent serotonin transporter (Homo sapiens, UniProt P31645). Briefly: Displacement of [3H]imipramin from human recombinant SERT over-expressed in HEK293 cells at 10 uM. It counts as cell-based.
Target sequence in this assay (P31645 whole entry, looked up): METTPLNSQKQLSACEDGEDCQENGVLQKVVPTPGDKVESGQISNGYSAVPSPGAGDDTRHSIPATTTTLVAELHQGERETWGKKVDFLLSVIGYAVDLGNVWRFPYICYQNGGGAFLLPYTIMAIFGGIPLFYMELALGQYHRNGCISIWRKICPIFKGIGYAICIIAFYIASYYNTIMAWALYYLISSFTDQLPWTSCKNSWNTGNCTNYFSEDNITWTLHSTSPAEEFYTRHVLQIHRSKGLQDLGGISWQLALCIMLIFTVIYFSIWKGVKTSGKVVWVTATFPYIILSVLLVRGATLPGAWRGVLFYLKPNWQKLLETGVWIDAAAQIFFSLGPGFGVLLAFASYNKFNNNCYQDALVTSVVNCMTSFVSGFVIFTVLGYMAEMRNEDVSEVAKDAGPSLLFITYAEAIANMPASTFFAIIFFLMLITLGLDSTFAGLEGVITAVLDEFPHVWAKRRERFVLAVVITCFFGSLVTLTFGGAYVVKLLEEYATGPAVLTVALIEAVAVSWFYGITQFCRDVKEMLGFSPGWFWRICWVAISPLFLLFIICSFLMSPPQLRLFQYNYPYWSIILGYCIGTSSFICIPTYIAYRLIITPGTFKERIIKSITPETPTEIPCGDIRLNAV
Assay [4] addresses T3, Sodium-dependent serotonin transporter. The following applies: HEK293, at 10 µM.
Target sequence in this assay (P31645 whole entry, looked up): as above
Description: Inhibition of human SERT-mediated serotonin uptake expressed in HEK293 cells at 10 uM after 15 mins by fluorescence plate reader analysis
Assay [5] concerns the target T1, Sodium-dependent dopamine transporter. Briefly: biochemical.
Assay [6] deals with T2, Sodium-dependent noradrenaline transporter. In words: biochemical.
Assay [7] concerns the target T3, Sodium-dependent serotonin transporter. In words: biochemical. Type of assay: cell-based, HEK293.
Target sequence in this assay (P31645 whole entry): as the sequence (P31645 whole entry, looked up) above

Molecules are shown by their SMILES.

T1 sequence (Q01959 whole entry): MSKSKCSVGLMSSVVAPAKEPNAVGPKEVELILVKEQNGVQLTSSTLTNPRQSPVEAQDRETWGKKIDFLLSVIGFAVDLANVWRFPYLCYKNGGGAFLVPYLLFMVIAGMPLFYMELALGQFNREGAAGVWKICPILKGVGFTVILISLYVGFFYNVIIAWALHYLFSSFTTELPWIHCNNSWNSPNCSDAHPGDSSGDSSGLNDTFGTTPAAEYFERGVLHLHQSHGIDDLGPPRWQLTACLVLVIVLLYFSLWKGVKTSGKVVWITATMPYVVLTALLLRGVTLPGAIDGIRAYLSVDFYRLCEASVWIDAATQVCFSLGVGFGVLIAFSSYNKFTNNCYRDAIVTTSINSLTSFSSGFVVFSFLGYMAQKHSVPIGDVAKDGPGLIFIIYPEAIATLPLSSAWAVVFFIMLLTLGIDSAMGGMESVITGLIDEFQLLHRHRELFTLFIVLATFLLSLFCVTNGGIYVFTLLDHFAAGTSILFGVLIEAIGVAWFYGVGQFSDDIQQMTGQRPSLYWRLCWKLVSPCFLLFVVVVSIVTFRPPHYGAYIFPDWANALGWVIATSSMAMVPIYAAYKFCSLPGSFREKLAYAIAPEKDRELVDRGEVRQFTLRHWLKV
T2 sequence (P23975 whole entry): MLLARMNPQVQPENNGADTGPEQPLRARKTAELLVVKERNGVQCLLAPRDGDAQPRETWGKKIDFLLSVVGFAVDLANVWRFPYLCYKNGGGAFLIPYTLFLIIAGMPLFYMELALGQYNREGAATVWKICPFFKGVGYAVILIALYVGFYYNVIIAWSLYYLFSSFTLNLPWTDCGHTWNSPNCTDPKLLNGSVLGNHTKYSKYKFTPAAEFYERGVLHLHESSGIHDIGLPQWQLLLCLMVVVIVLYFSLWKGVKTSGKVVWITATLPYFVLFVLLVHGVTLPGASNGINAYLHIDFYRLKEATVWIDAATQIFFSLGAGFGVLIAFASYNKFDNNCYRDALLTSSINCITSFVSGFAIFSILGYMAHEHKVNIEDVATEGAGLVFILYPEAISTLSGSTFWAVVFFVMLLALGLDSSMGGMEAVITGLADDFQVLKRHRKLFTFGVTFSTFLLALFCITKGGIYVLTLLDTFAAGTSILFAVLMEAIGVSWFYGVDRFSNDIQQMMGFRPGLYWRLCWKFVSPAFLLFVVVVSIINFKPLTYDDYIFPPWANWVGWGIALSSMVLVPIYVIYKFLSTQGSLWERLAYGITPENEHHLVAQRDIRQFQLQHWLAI

As usually defined, the inhibition is the relative decrease from the control value, in per cent. Turning to `O=C1NCC(c2ccccc2Cl)C1c1ccccc1Cl` (configuration not stated), the inhibition was determined as 45% in assay [1], 33% in assay [2], 20% in assay [3] and 6.9% in assay [4].

Broadly, the IC50 is the concentration that gives 50% inhibition. For `O=C1NCC(c2ccc(Cl)cc2)C1c1ccccc1Cl` (configuration not stated), the inhibition is 97% in assay [1], 74% in assay [2], 49% in assay [3] and 23.4% in assay [4]. For the same molecule, the IC50 was determined as 81.5 nM in assay [5] and 3570 nM in assay [6].

`O=C1NCC(c2ccc(Cl)c(Cl)c2)C1c1cccc(Cl)c1` (configuration not stated): the inhibition in assay [1] was determined as 87%; in assay [2] it was 93%; in assay [3], 57%; in assay [4], 20.4%. Further, the IC50 in assay [5] amounted to 41.7 nM; in assay [6] it was 384 nM.

Turning to `O=C1NCC(c2ccc(Cl)c(Cl)c2)C1c1ccccc1` (configuration not stated), the inhibition in assay [1] was 83%; in assay [2], 87%; in assay [3] it was 49%; in assay [4], 29.4%. In addition, the IC50 was 36.6 nM in assay [5] and 866 nM in assay [6].

On to `O=C1NCC(c2ccc(Cl)c(Cl)c2)C1c1ccc(Cl)c(Cl)c1` (configuration not stated), for which the inhibition was 85% in assay [1], 90% in assay [2], 42% in assay [3] and 8.8% in assay [4]. The IC50 was 285 nM in assay [5] and 990 nM in assay [6].

Regarding `O=C1NCC(c2ccc(Cl)cc2)C1c1cccc(Cl)c1` (configuration not stated), the inhibition was 99% in assay [1], 72% in assay [2], 22% in assay [3] and 12.2% in assay [4]. Also, the IC50 turned out to be 36.3 nM in assay [5] and 3820 nM in assay [6].

As to `CN(C)CCCN1c2ccccc2CCc2ccc(Cl)cc21` [CLOMIPRAMINE], it took 2780 nM to reach half-maximal inhibition in assay [5] (IC50).

In turn, `CNCCC(Oc1ccccc1OC)c1ccccc1` (configuration not stated) yielded an inhibition in assay [4] of 54%.

Turning to `O=C1NCC(c2cccc(Cl)c2)C1c1ccc(Cl)c(Cl)c1` (configuration not stated), the inhibition was determined as 99% in assay [1], 78% in assay [2], 71% in assay [3] and 40.9% in assay [4]. Moreover, the IC50 in assay [7] amounted to 3760 nM; in assay [5] it was 172 nM; in assay [6] it was 2740 nM.

As to `O=C1NCC(c2ccc(Cl)cc2)C1c1ccccc1` (configuration not stated), the inhibition in assay [1] is 99%; in assay [2] it was 50%; in assay [3] it was 20%; in assay [4], 30.8%. In assay [5], this molecule yielded an IC50 of 32.7 nM.

On to `O=C1NCC(c2ccccc2Cl)C1c1ccc(Cl)cc1` (configuration not stated), for which the inhibition stood at 51% in assay [1], 60% in assay [2], 26% in assay [3] and 8.5% in assay [4]. Moreover, the IC50 in assay [6] stood at 7620 nM.

Consider `O=C1NCC(c2ccc(Cl)c(Cl)c2)C1c1ccccc1Cl` (configuration not stated), for which the inhibition was found to be 100% in assay [1], 99% in assay [2], 52% in assay [3] and 21.9% in assay [4]. The IC50 is 8.14 nM in assay [5] and 510 nM in assay [6].

Take `O=C1NCC(c2cccc(Cl)c2)C1c1ccccc1Cl` (configuration not stated): the inhibition in assay [1] came to 96%; in assay [2] it was 41%; in assay [3], 39%; in assay [4], 20.2%. For the same molecule, the IC50 in assay [5] was determined as 17.3 nM.

For `O=C1NCC(c2ccc(Cl)cc2)C1c1ccc(Cl)cc1` (configuration not stated), the inhibition in assay [1] turned out to be 99%; in assay [2], 75%; in assay [3] it was 84%; in assay [4] it was 58.1%. The IC50 in assay [7] came to 99.2 nM; in assay [5], 179 nM; in assay [6] it was 5180 nM.

As for `O=C1NCC(c2ccccc2Cl)C1c1ccc2ccccc2c1` (configuration not stated), the inhibition was found to be 23% in assay [1], 89% in assay [2], 56% in assay [3] and 4.5% in assay [4]. In addition, the midpoint of inhibition in assay [6], the IC50, lay at 1380 nM.

`Clc1cccc2c1CC[C@H]1NC[C@H](c3ccccc3)[C@@H]21`: the figures for the inhibition in assay [1], in assay [2] and in assay [3] were 5%, 10% and 9%, respectively.

Turning to `O=C1NCC(c2ccc(Cl)cc2)C1c1ccc(Cl)c(Cl)c1` (configuration not stated), the inhibition was found to be 96% in assay [1], 92% in assay [2], 57% in assay [3] and 22.7% in assay [4]. The half-inhibitory concentration (IC50) is 281 nM in assay [5] and 1900 nM in assay [6].

For the molecule `O=C1NCC(c2ccccc2Cl)C1c1ccccc1` (configuration not stated), the inhibition in assay [1] turned out to be 70%; in assay [2] it was 5%; in assay [3], 23%; in assay [4], 19.3%. In assay [5], this molecule returned an IC50 of 2140 nM.

As to `O=C1NCC(c2cccc(Cl)c2)C1c1ccc(Cl)cc1` (configuration not stated), the inhibition in assay [1] came to 95%; in assay [2], 87%; in assay [3], 49%; in assay [4] it was 38.4%. Moreover, the results for the IC50 in assay [5] and in assay [6] were 33.1 nM and 1660 nM, respectively.

As to `Clc1ccc2c(c1)[C@@H]1[C@@H](c3ccccc3)CN[C@@H]1CC2`, the values for the inhibition in assay [1], in assay [2] and in assay [3] were 5%, 10% and 9%, respectively.

Regarding `O=C1NCC(c2cccc(Cl)c2)C1c1ccccc1` (configuration not stated), the inhibition in assay [1] turned out to be 98%; in assay [2], 26%; in assay [3], 55%; in assay [4], 24.3%. In assay [5], this molecule displayed an IC50 of 22.7 nM.

As for `O=C1NCC(c2ccc(Cl)c(Cl)c2)C1c1ccc2ccccc2c1` (configuration not stated), the inhibition in assay [1] was 86%; in assay [2], 94%; in assay [3] it was 69%; in assay [4], 4.4%. Moreover, the results for the IC50 in assay [7], in assay [5] and in assay [6] were 965 nM, 121 nM and 483 nM, respectively.

As for `O=C1NCC(c2ccccc2Cl)C1c1ccc(Cl)c(Cl)c1` (configuration not stated), the inhibition was 87% in assay [1], 90% in assay [2], 26% in assay [3] and 6.2% in assay [4]. In addition, the IC50 in assay [5] is 1730 nM; in assay [6] it was 2520 nM.

As to `Clc1ccc2c(c1)CC[C@H]1NC[C@H](c3ccccc3)[C@@H]21`, the values for the inhibition in assay [1], in assay [2] and in assay [3] were 5%, 10% and 9%, respectively.

With `Clc1ccc2c(c1Cl)CC[C@H]1NC[C@H](c3ccccc3)[C@@H]21`, the inhibition in assay [1] amounted to 5%; in assay [2] it was 10%; in assay [3] it was 9%.

Turning to `O=C1NCC(c2cccc(Cl)c2)C1c1cccc(Cl)c1` (configuration not stated), the inhibition was determined as 98% in assay [1], 59% in assay [2], 26% in assay [3] and 14.3% in assay [4]. The molecule further displayed an IC50 in assay [5] of 38.7 nM.

Regarding `O=C1NCC(c2ccc(Cl)c(Cl)c2)C1c1ccc(Cl)cc1` (configuration not stated), the inhibition in assay [1] was found to be 76%; in assay [2] it was 83%; in assay [3], 90%; in assay [4], 50.4%. Also, the IC50 in assay [7] worked out at 85.6 nM; in assay [5], 99.6 nM; in assay [6] it was 2030 nM.

Regarding `O=C1NCC(c2ccc(Cl)cc2)C1c1ccc2ccccc2c1` (configuration not stated), the inhibition in assay [1] was determined as 97%; in assay [2] it was 91%; in assay [3], 79%; in assay [4], 26.3%. The IC50 in assay [7] was 6450 nM; in assay [5], 160 nM; in assay [6] it was 1190 nM.
